Experimental findings from paper doi:10.1101/735001v1 (bioRxiv, 2019) are described below.

Data set [1] is described as follows: Acrylamide dynamic quenching. The format is physicochemical.
Data set [2] deals with LUVs containing 20 mol% TOCL in POPC. Put plainly: Endogenous 2',6'-Dmt fluorescence measurement of SS-31 membrane binding. As to conditions: for increase in SS-31 emission intensity relative to emission in the absence of LUVs: 20% TOCL, mean (SD), n=6, SD; for n value ([L]eff:[P] at saturation) from time course titration inflection point: 20 mol% TOCL.
In data set [3] the test system is LUVs containing 10 mol% TOCL. The experiment in a line: SS-31 titration time course binding saturation analysis. As to conditions: low salt.
The subject of data set [4] is LUVs containing 20 mol% MLCL in POPC. Put plainly: Endogenous 2',6'-Dmt fluorescence measurement of SS-31 membrane binding. The conditions noted are these: 20% MLCL, mean (SD), n=6.
For data set [5], the system named is LUVs containing 20% TOCL. The experiment in a line: Acrylamide dynamic quenching. The class given is binding. The conditions noted are these: 20 μM SS-31 with LUVs 20% TOCL, n=3.
For data set [6], the system named is LUVs containing 20% POPG. Put plainly: Acrylamide dynamic quenching. The class given is binding. The conditions noted are these: 20 μM SS-31 with LUVs 20% POPG, n=3.
In data set [7] the test system is LUVs with POPC only. Put plainly: Endogenous 2',6'-Dmt fluorescence measurement of SS-31 membrane binding. As to conditions: 100% POPC, high salt (100 mM KCl), 20 μM SS-31, [L]eff 100 µM, mean (SD), n=6.
Data set [8] concerns LUVs containing 20 mol% POPG in POPC. Described as above. The conditions noted are these: for increase in SS-31 emission intensity relative to emission in the absence of LUVs: 20% POPG, mean (SD), n=6, SD.
In data set [9] the test system is LUVs containing 20% MLCL. Put plainly: Acrylamide dynamic quenching. The format is binding. As to conditions: 20 μM SS-31 with LUVs 20% MLCL, n=3.
Where [10] appears, read: aqueous buffer, comparison of SS-31 with L-Tyr (Fig. S3C), n=3.

The structures appear in SMILES notation. Where a SMILES comes first, the peptide text is derived from it. [ ]: non-standard residue; d: D form. Dmt = Cc1cc(O)cc(C)c1C[C@H](N)C(=O)O

As to `N[C@@H](Cc1ccc(O)cc1)C(=O)O` [L-Tyr, reference compound], in [1] (setting [10]), the “Stern-Volmer constant KSV (acrylamide quenching)” value (shortened to “Stern-Volmer constant KSV”) stood at 17.1 M⁻¹.
Consider `Cc1cc(O)cc(C)c1C[C@H](NC(=O)[C@H](N)CCCNC(=N)N)C(=O)N[C@@H](CCCCN)C(=O)N[C@@H](Cc1ccccc1)C(N)=O` [SS-31, D-Arg-2’6’-dimethylTyr-Lys-Phe-NH2] (H-[dR][Dmt]KF-NH2), for which the “increase in SS-31 emission intensity relative to emission in the absence of LUVs” value in data set [2] (high salt (100 mM KCl)) is listed as 1.72 (0.08); in data set [2] (low salt, 20 μM SS-31, [L]eff 100 µM), 2.33 (0.07); in [4] (high salt (100 mM KCl)), 1.79 (0.05); in data set [4] (low salt), 2.48 (0.05); in data set [7], 1.08 (0.04); in [8] (high salt (100 mM KCl)) it was 1.45 (0.04). In [8] (low salt), the “increase in SS-31 emission intensity relative to emission in the absence of LUVs” value was 2.16 (0.04). Also, the “n value ([L]eff:[P] at saturation) from time course titration inflection point” value in data set [2] (high salt) was ~ 9; in data set [2] (low salt, SS-31 added in 2 µM increments, acrylamide in medium), ~ 5; in data set [3], ~ 12; in data set [8] (20 mol% POPG, low salt), about 11. Besides, the “Stern-Volmer constant KSV” value in [5] (high salt) worked out at 1.20 M⁻¹; in data set [5] (low salt), 0.15 M⁻¹; in data set [6] (high salt) it was 2.19 M⁻¹; in data set [6] (low salt), 0.21 M⁻¹; in data set [1] (20 μM SS-31 in the absence of membranes, high salt (100 mM KCl)), 5.4 M⁻¹; in data set [1] (20 μM SS-31 in the absence of membranes, low salt), 5.7 M⁻¹. Also, the “Stern-Volmer constant KSV” value in data set [1] (setting [10]) was 4.8 M⁻¹; in data set [9] (high salt) it was 1.04 M⁻¹; in data set [9] (low salt), 0.02 M⁻¹.
